Data published in US20020147353A1, “Novel flavonoids” (Vereniging christelijk wetenschappelijk anderwijs, priority 1999, published 2002).

Experiments:
[1] = test system: iron/ascorbate induced lipid peroxidation; assay: Lipid peroxidation (LPO) model, heat-treated hepatic microsomes, TBA reactive substances; type: biochemical; conditions: rat hepatic microsomes, reaction started with 10 uM FeSO4; mean ± s.e.m., n = 3-5
Description: Experiment 1: Lipid Peroxidation Model
Preparation of hepatic microsomes.
Male Wistar rats (200-220 g) obtained from Harlan Nederland B.V. (Horst, The Netherlands) were sacrificed by decapitation. Livers were removed and homogenized in ice-cold phosphate buffer (50 mM+0.1 mM EDTA, pH=7.4, 1:2 w/v). The homogenate was centrifuged at 10 000× g (20 min at 4° C.). Subsequently, the supernatant was centrifuged at 100 000× g for 60 min (4° C.). The pellet was resuspended in phosphate buffer and centrifuged again at 100 000× g (60 min, 4° C.). Finally the microsomal pellet was resuspended in phosphate buffer (2 g liver/ml) and 1 mL aliquots were stored at −80° C.
Microsomes were thawed and resuspended in ice-cold Tris-HCl buffer (50 mM, pH=7.4 at 37° C.) and washed by centrifugation. The pellet was resuspended in 2 mL 50 mM Tris-HCl buffer and heated to 100° C. for at least 2 min to remove all enzymatic factors just before resuspending and diluting it in ice-cold Tris buffer to 1.5 mg/mL.
Stock solutions of the flavonoids were freshly prepared in nitrogen-purged DMSO and nanopure water (1:1) just before use. The reaction was started by adding 10 uM freshly prepared FeSO4 in nitrogen-purged nanopure water. LPO was assayed by measuring thiobarbituric acid (TBA) reactive substances. At t=0, 5, 10, 15, 30, 45 and 60 min an 0.3 mL aliquot of the incubation was mixed with 2 mL of an ice-cold TBA-trichloroacetic acid-HCl-butylhydroxytoluene (BHT) solution to stop the reaction. After heating and centrifugation the absorbance at 535 vs 600 nm was determined. The TBA-trichloroacetic acid-HCl-butylhydroxytoluene solution was prepared by dissolving 41.6 mg TBA/10 ml trichloroacetic acid (16.8% w/v in 0.125 N HCl). To 10 ml TBA-trichloroacetic acid-HCl 1 ml BHT (1.5 mg/ml ethanol) was added.
The IC50 was determined by measuring the % LPO inhibition at several concentrations and interpolating the 50% inhibition point.

[2] = TEAC model (Trolox equivalent antioxidant capacity); conditions: concentration of Trolox equivalent to 1 mM test compound; mean ± S.D., n = 3-5
Description: A solution of 2,2′-azino-bis(3-ethylbenzthiazoline-6-sulfonic acid) (1.23 mg/mL) and azobisamidinepropane (3.96 mg/mL) in 50 mM phosphate buffer (pH=7.4) was heated at 70° C. for 20 min. The amount of ABTS radicals was measured by determination of the absorbance at 734 nm.
Stock solutions of the flavonoids were freshly prepared in nitrogen-purged DMSO and nanopure water (1:1) just before use. A calibration curve of Trolox ((+/−)-6-hydroxy-2,5,7,8-tetramethyl-chroman-2-carboxylic acid) was made in a concentration range from 0 to 20 μM. A mixture of 50 μL test compound and 950 μL ABTS^−+ solution was incubated at 37° C. for 5 min. Subsequently the absorbance at 734 nm was determined on a UV/VIS Spectrophotometer.
The antioxidant-induced decrease in absorbance is directly related to the antioxidant capacity of the compound (solution) being tested.
The Trolox equivalent antioxidant capacity (TEAC) is defined as the concentration (mM) of Trolox having an antioxidant capacity equivalent to 1 mM of the test compound.

[3] = test system: isolated mouse left atrium; assay: Isolated mouse left atrium model: protection against doxorubicin-induced negative inotropy; set-up: key: NP: No protection; conditions: 250 μM flavonoid with 35 μM doxorubicin, electrically paced mouse left atrium
Description: Experiment 3: Isolated Mouse Left Atrium Model
In order to determine the cardioprotective properties of the compounds in vitro, the protection against doxorubicin-induced negative inotropy was studied, using the isolated mouse left atrium model.
The example compounds were tested for their protective effect on the negative inotropic action of doxorubicin on the isolated mouse left atrium. The testing model has been described earlier (de Jong et al.Ress Comm Chem Pathol Pharmacol 68, 275-289 (1990). In short, left atria were isolated from male Balb/c mice (18-22 g) and stimulated with square wave pulses of 3 ms duration at a frequency of 4 Hz. Incubation with […] doxorubicin causes a decrease in inotropy of 50% (after 1 h). Atria were incubated with 35 μM doxorubicin and 250 μM flavonoid. Inotropy was measured and expressed as % basal contractile force relative to t=0.

OVCAR-3 cells [4] = assay: Antitumor activity of flavonoids, SRB growth inhibition assay; type: cell-based; conditions: 72 h
Description: Experiment 6: Antitumor Activity of Flavonoids
Next to the use of flavonoids as medicaments in free radical mediated diseases, the presence of anti-tumor activity has been reported. Quercetin is the best known example (Molnar et al. Neoplasma, 28: 11-17 (1981)). Because of the possible use of these compounds in chemotherapy, it was checked whether the compounds affected cell growth.
On day 0 cultured OVCAR-3 cells were plated at a density of 5000 cells/well. After 24 h (day 1) the example compounds were added and after incubation of 72 h at 37° C. (day 4), growth inhibitory effects were evaluated with the standard SRB (sulforhodamine B) assay (Skehan et al. J. Natl. Cancer Inst., 82: 1107-1112 (1990)).

MCF-7 cells = assay: Interference with antitumor activity of doxorubicin, MTT assay; type: cell-based; conditions: Homo sapiens, MCF7, MCF-7, 96 h, read-out: Dox IC50
Description: (§1) Experiment 5: Interference with the Antitumor Activity of Doxorubicin Because of the possible use of these compounds as adjuvants in the chemotherapy, it was checked whether the compounds influenced the negative effect of doxorubicin on cell growth. […] This observation further underlined the use of these compounds as adjuvant therapy in the protection of the side effects of cytostatics. On day 0 cultured OVCAR-3, MCF-7 and A2780 cells were plated at a density of 5000 cells/well for OCAR-3 and MCF-7 and 3000 cells/well for A2780 cells. […] After incubation of 96 h at 37° C. (day 5), growth inhibitory effects were evaluated using the standard MTT assay.

OVCAR-3 cells [5] = assay: as above; type: cell-based; conditions: Homo sapiens, OVCAR-3, 96 h, read-out: Dox IC50
Description: as §1

A2780 cells = assay: as above; type: cell-based; conditions: Homo sapiens, A2780, 96 h, read-out: Dox IC50
Description: as §1

Row | Compound | IC50 [1] [µM] | TEAC [2] [mM] | Atrium protection (250 μM) [3] | further results
1 | C[C@@H]1O[C@@H](OC[C@H]2O[C@@H](Oc3c(-c4ccc(O)c(O)c4)oc4cc(OCCO)cc(O)c4c3=O)[C@H](O)[C@@H](O)[C@@H]2O)[C@H](O)[C@H](O)[C@H]1O [monoHER, 7-monohydroxyethylrutoside, reference compound] | 12.7 ± 3.7 | 3.0 ± 0.2 | 52% | –
2 | CN(C)CCCOc1ccc2c(=O)cc(-c3ccc(O)c(O)c3)oc2c1 [Compound 8e, 3′,4′-dihydroxy-7-(3-dimethylaminopropoxy)flavone] | 8.1 ± 1.1 | 2.9 ± 0.4 | – | –
3 | C[C@@H]1O[C@@H](OC[C@H]2O[C@@H](Oc3c(-c4ccc(O)c(O)c4)oc4cc(O)cc(O)c4c3=O)[C@H](O)[C@@H](O)[C@@H]2O)[C@H](O)[C@H](O)[C@H]1O [Rutin, reference compound] | 10 | – | – | –
4 | O=C(O)COc1c(-c2ccc(O)c(O)c2)oc2ccccc2c1=O [Compound 9d, 3′4′-dihydroxy-3-(2-ethoxycarboxylic acid)flavone] | 6.5 ± 1 | 7.6 ± 0.6 | NP | –
5 | O=c1c(O)c(-c2cc(O)c(O)c(O)c2)oc2cc(O)cc(O)c12 [Myricetin, reference compound] | 10 | – | – | –
6 | COc1ccc2c(=O)cc(-c3ccc(O)c(O)c3)oc2c1 [Compound 8b, 3′,4′-dihydroxy-7-methoxyflavone] | 2.5 ± 0.8 | 3.3 ± 0.2 | – | melting point: > 240 °C
7 | O=c1c(OCCO)c(-c2ccc(O)c(O)c2)oc2ccccc12 [Compound 9c, 3′,4′-dihydroxy-3-hydroxyethoxyflavone] | 0.6 ± 0.1 | 4.4 ± 0.4 | NP | IC50 (OVCAR-3 cells [4]; Homo sapiens): 44.2 ± 20.1 µM
8 | COc1cccc2c1C(=O)c1c(O)c3c(c(O)c1C2=O)C[C@@](O)(C(=O)CO)C[C@@H]3O[C@H]1C[C@H](N)[C@H](O)[C@H](C)O1 [Dox, doxorubicin, reference compound] | – | – | – | IC50 (MCF-7 cells): 0.004 µM; IC50 (OVCAR-3 cells [5]): 0.0065 µM; IC50 (A2780 cells): 0.0038 µM
9 | C[N+](C)(C)CCCOc1c(-c2ccc(O)c(O)c2)oc2ccccc2c1=O [Compound 9f, 3′4′-dihydroxy-3-(3-trimethylaminopropoxy)flavone] | 1.2 ± 0.3 | 4.2 ± 0.2 | NP | –
10 | O=c1c(O)c(-c2ccc(O)cc2)oc2cc(O)cc(O)c12 [Kaempferol, reference compound] | 6 | – | – | –
11 | O=c1cc(-c2ccc(O)c(O)c2)oc2cc(O)cc(O)c12 [Lutcolin, reference compound] | 17 | – | – | –
12 | O=c1c(O)c(-c2ccc(O)c(O)c2)oc2cc(O)cc(O)c12 [Quercetin, reference compound] | 9 | – | – | IC50 (OVCAR-3 cells [4]; Homo sapiens): 126 ± 50.5 µM
13 | O=c1c(O)c(-c2ccccc2)oc2cc(O)cc(O)c12 [Galangin, reference compound] | 6 | – | – | –
14 | Fisetin [reference compound] | 16 | – | – | –
15 | C[N+](C)(C)CCCc1c(-c2ccc(O)c(O)c2)oc2cc(O)ccc2c1=O.[Cl-] [Compound 10d, 3-(7,3′,4′-trihydroxyflavon-3-yl)-propyltrimethylammoniumchloride] | 3.8 ± 0.1 | 5.1 ± 0.3 | 33% | –
16 | C[N+](C)(C)CCCOc1ccc2c(=O)cc(-c3ccc(O)c(O)c3)oc2c1 [Compound 8d, 3′4′-dihydroxy-7-(3-trimethylaminopropoxy)flavone] | 37.3 ± 2.4 | 1.9 ± 0.3 | – | –
17 | COc1c(-c2ccc(O)c(O)c2)oc2ccccc2c1=O [Compound 9b, 3′4′-dihydroxy-3-methoxyflavone] | 1.3 ± 0.7 | 4.4 ± 0.3 | NP | IC50 (OVCAR-3 cells [4]): 2.2 ± 0.4 µM
18 | COc1c(-c2ccc(O)c(O)c2)oc2cc(O)ccc2c1=O [Compound 10b, 3-methoxy-7,3′,4′-trihydroxyflavone] | 1.6 ± 0.7 | 5.9 ± 0.7 | NP | IC50 (OVCAR-3 cells [4]; Homo sapiens): 15.8 ± 1.3 µM
19 | O=c1c(O)c(-c2ccc(O)c(O)c2)oc2ccccc12 [Compound 9a, 3′3,3′,4′-trihydroxyflavone] | 1.8 ± 1 | 4.5 ± 0.5 | NP^1 | IC50 (OVCAR-3 cells [4]): 21 ± 2.4 µM
20 | C[C@@H]1O[C@@H](OC[C@H]2O[C@@H](Oc3c(-c4ccc(O)c(O)c4)oc4ccccc4c3=O)[C@H](O)[C@@H](O)[C@@H]2O)[C@H](O)[C@H](O)[C@H]1O [Compound 9j, 3′,4′-dihydroxy-3-rutinoseflavone] | 15.7 ± 4.8 | 4.3 ± 0.3 | NP | –
21 | O=c1cc(-c2ccc(O)c(O)c2)oc2cc(O)ccc12 [Compound 8a, 3′,4′,7-trihydroxyflavone] | 11 ± 1.3 | 4.3 ± 0.2 | – | –
22 | O=c1c(OCCO)c(-c2ccc(O)c(O)c2)oc2cc(O)ccc12 [Compound 10c, 3-hydroxyethoxy-7,3′,4′-trihydroxyflavone] | 21.7 ± 6.1 | 3.4 ± 0.2 | 13% | –
23 | C[N+](C)(C)CCCCCCOc1c(-c2ccc(O)c(O)c2)oc2ccccc2c1=O [Compound 9g, 3′4′-dihydroxy-3-(6-trimethylaminohexyloxy)flavone] | 1.4 ± 0.3 | 4.3 ± 0.6 | NP | –
24 | CN(C)CCCOc1c(-c2ccc(O)c(O)c2)oc2ccccc2c1=O [Compound 9e, 3′,4′-dihydroxy-3-(3-dimethylaminopropoxy)flavone] | 1 ± 0.1 | 3.4 ± 0.4 | NP | –
25 | O=c1cc(-c2ccc(O)c(O)c2)oc2cc(OCCO)ccc12 [Compound 8c, 3′,4′-dihydroxy-7-hydroxyethoxyflavone] | 16.4 ± 1.7 | 4.3 ± 0.7 | – | –
26 | C[N+](C)(C)CCCCCCCCOc1c(-c2ccc(O)c(O)c2)oc2ccccc2c1=O [Compound 9h, 3′4′-dihydroxy-3-(8-trimethylaminooctyloxy)flavone] | 1 ± 0.3 | 3.3 ± 0.6 | NP | –
